# Assays:
# [1] = tested on: S. elongatus
# Protocol: (§1) Unless otherwise specified, S. elongatus strains were cultured in BG-11 medium (45) with the addition of 50 mM NaHCO3. Cells were grown at 30° C. with rotary shaking (100 rpm) and light (55 μE s^−1 m^−2) provided by four 86 cm 20 W fluorescent tubes 5 cm above the cell cultures. Cell growth was monitored by measuring OD730.
# (§2) To evaluate acetoin and 23BD toxicity, we tested the growth of S. elongatus over 72 h in the presence of 23BD or acetoin.
# [2] = tested on: S. elongatus; conditions: cited from earlier work
# [3] = tested on: S. elongatus; test: growth of S. elongatus over 72 h in the presence of 23BD or acetoin (toxicity)
# Protocol: as §1, §2
compound,measurement,setting,value
"CC(O)C(C)O (centres unmarked) [23BD, 2,3-butanediol]",growth of S. elongatus in the presence of 10 g/L 23BD,[1],barely inhibited
same,growth of S. elongatus in the presence of 30 g/L 23BD,[1],still exhibited growth
same,toxicity in S. elongatus (in words),[1],low toxicity
CC(C)CO [isobutanol],concentration that prevents growth of S. elongatus,[2],1000 µg/mL
CC(=O)C(C)O (centres unmarked) [acetoin],decrease of growth of S. elongatus,"[3]; 0.2 g/L acetoin, 72 h",approximately 50%
same,concentration at which growth of S. elongatus stopped,[3]; 72 h,1000 µg/mL
same,concentration above which toxic in S. elongatus,[3]; FIG. 2A,above 0.1 g/L
CC(C)C=O [isobutyraldehyde],concentration that prevents growth of S. elongatus,[2],1000 µg/mL

# Reference: US9428773B2, “Methods of producing acetoin and 2,3-butanediol using photosynthetic microorganisms” (The Regents of the University of California, priority 2012, dated 2016)
